target: T1, CCR2 (Homo sapiens, UniProt P41597); assay: Receptor membrane binding assay: [125I]MCP-1 binding to CCR2 on THP-1 cell membranes (SPA beads); conditions: THP-1 membranes, [125I]MCP-1, bound radioactivity after 8 h; read-out: hKi
T1 construct: Membranes were prepared from THP-1 cells; endogenous in cells; host or cells: THP-1 (human acute monocytic leukaemia cells), membrane preparation
Experimental: The above exemplary substances have been tested for binding to CCR2 using a binding assay as outlined herein below:
THP-1 cells (human acute monocytic leukaemia cells) were cultured under standardized conditions at 37° C. and 5% CO2 in a humidified incubator. THP-1 cells were cultivated in RPMI 1640 medium (Gibco 21875) containing 1% MEM-NEAA (Gibso 11140) 2 mM L-glutamine, 1.5 g/L sodium bicarbonate, 4.5 g/L glucose, 10 mM HEPES and 1.0 mM sodium pyruvate, 90%; 10% fetal calf serum (FCS Gibco 10500-064).
Membranes were prepared from THP-1 cells. THP-1 cells were centrifuged at 300×g at 4° C. for 10 min. The cell pellet was resuspended in Phosphate Buffer Saline (PBS, including 10 μM Pefabloc and a protease inhibitor mix ‘complete’, Boehringer Mannheim (1 tablet/50 ml)), to a concentration of […]. The membrane preparation was performed by disrupting the cells by nitrogen […] (at 50 bar, for 1 h) in a “Nitrogen Bombe” (Parr Instrument). Cell debris was removed by centrifugation (800×g at 4° C., 1 min). The supernatant was centrifuged at 80000×g, 4° C. for 30 min to sediment the cell membranes. Usually 50 mg of protein (Bradford assay) were yielded from 1×10E9 cells. The membranes were resuspended in 25 mM HEPES, 25 mM MgCl2, 1 mM CaCl2, 10% Glycerine for storage in aliquots at −80° C. in 25 mM HEPES, 25 mM MgCl2, 1 mM CaCl2, 10% Glycerine and stored at −80° C.
Receptor Membrane Binding Assay:
Perkin Elmer NEX 332 Jod 125 MCP-1, Stock: 2200 Ci/mmol solved in 2000 μl assay buffer, stored at −20° C. THP-1 membrane were adjusted with 25 mM HEPES, pH 7.2; 5 mM MgCl2; 0.5 mM CaCl2; 0.2% BSA assay buffer to a concentration of 2.5 μg/15 μl. Amersham Biosciences PVT-WGA Beads (RPNQ0001) were adjusted with assay buffer to a concentration of 0.24 mg/30 μl. For preparation of the membrane-bead-suspension membranes and beads were incubated for 30 min at RT under rotation (60 rpm) with a ratio of 1:2. Test compounds dissolved in 100% DMSO to a concentration of 10 mM and are further diluted with 100% DMSO to 1 mM. All additional compound dilutions were obtained with assay buffer, final 1% DMSO. Compounds, membrane-bead-suspension and [125I]MCP-1 (ca. 25000 cpm/10 μl) were incubated. Bound radioactivity was determined by scintillation counter after 8 h. Determination of affinity of test compounds (dissociation constant hKi) is calculated by iterative fitting of experimental data using the “easy sys” program, which is based on law of mass action (Schittkowski K. (1994), Numerische Mathematik, Vol. 68, 129-142).

T1 sequence (P41597 whole entry): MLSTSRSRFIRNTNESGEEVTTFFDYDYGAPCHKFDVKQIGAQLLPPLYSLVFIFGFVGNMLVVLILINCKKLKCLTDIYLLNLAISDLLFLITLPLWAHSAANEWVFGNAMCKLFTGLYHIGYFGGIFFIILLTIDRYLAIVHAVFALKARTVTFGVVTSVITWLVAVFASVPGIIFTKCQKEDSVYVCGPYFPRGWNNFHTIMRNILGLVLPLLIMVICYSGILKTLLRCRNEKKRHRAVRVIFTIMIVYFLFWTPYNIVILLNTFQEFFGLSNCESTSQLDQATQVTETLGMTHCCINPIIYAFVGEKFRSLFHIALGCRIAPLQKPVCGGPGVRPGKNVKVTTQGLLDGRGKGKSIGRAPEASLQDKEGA

Q: COc1ccc2cc(Nc3ncnc(C(=O)N4CCC(N[C@H]5CCOC[C@H]5OC)CC4)c3C)ccc2c1 [Example 36] was tested. Which Ki did it give?
A: The Ki was 70 nM.

Q: COc1ccc2ccc(Nc3ncnc(C(=O)N4CCC(N[C@H]5CCOC[C@H]5OC)CC4)c3C)cc2c1 [Example 37] was tested. Which Ki did it give?
A: The Ki was 15 nM.

Q: For COc1cc(Nc2ncnc(C(=O)N3CCC(N[C@H]4CCOC[C@H]4OC)CC3)c2C)cc2ccccc12 [Example 38], which Ki is on record?
A: Its Ki is 91 nM.

Q: For CO[C@H]1COCC[C@H]1NC1CCN(C(=O)c2ncnc(Nc3ccc4ccccc4c3)c2C)CC1 [Example 39], which Ki is on record?
A: Its Ki is 84 nM.

Q: With COc1ccc2ccc(Nc3ncnc(C(=O)N4CCC(N[C@@H]5CCOC[C@@H]5OC)CC4)c3C)cc2c1 [Example 40] as the compound, how does the Ki read?
A: The Ki was 84 nM.

Q: COc1cc(Nc2ncnc(C(=O)N3CCC(N[C@@H]4CCOC[C@@H]4OC)CC3)c2C)cc2ccccc12 [Example 41] was tested. Which Ki did it give?
A: Its Ki is 196 nM.

Q: For CO[C@H]1COCC[C@H]1NC1CCN(C(=O)c2ncnc(Nc3ccc4cc(Br)ccc4c3)c2C)CC1 [Example 42], which Ki is on record?
A: Its Ki is 20 nM.

Q: Which Ki does the source give for CO[C@@H]1COCC[C@@H]1NC1CCN(C(=O)c2ncnc(Nc3ccc4cc(Br)ccc4c3)c2C)CC1 [Example 43] here?
A: Its Ki is 17 nM.

Reference: US8946218B2, “CCR2 receptor antagonists, method for producing the same, and use thereof as medicaments” (Boehringer Ingelheim International GmbH, priority 2010, dated 2015)
